Source: US20240335443A1, “IMIDAZOLOPYRIDAZINE OR PYRAZOLOPYRIMIDINE COMPOUNDS AND COMPOSITIONS” (Anrui Biomedical Technology (Guangzhou) Co., Ltd., priority 2021, published 2024)
Like-named read-outs stand apart in the source and are kept apart here.

Experiments:
[1] = target: T1, N-terminal His-tagged TYK2 pseudokinase domain (Homo sapiens, UniProt P29597); test: TYK2 JH2 domain SPA binding assay; settings: displacement of H3 probe (20 nM), 30 min room temperature; class symbols
T1 construct: the N-terminal His-tagged TYK2 pseudokinase domain; His (N); purchased Pharmaron
T1 sequence (P29597 589-875 limits assumed): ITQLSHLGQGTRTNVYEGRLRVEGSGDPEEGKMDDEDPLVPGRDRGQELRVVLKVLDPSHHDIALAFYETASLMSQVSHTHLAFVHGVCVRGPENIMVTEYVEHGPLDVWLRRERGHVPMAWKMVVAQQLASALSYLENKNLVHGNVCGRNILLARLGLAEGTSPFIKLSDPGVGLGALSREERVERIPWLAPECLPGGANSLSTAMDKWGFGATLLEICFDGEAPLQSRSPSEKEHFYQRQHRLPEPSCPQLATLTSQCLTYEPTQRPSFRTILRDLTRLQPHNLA
Method: TYK2 JH2 Domain Binding Assay
After incubating at room temperature for 30 min, the inhibition was calculated by the displacement of [3H] 3 binding as determined by scintillation counting. Dose-response curves were generated to determine the concentration required to inhibit H3 probe binding by […] (IC50).

[2] = test system: IL-23 induced STAT3 in HEK-Blue™ IL-23 cells; test: IL-23 induced STAT3 QUANTI-Blue reporter assay in HEK-Blue IL-23 cells; format: cell-based; settings: IL-23 0.1 ng/mL, SEAP levels, class symbols, read-out: IL23 reporter assay (IC50 nM)
Procedure, shortened: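 HEK-Blue IL-23 cells, 5000/well, preincubated with compound 1 h at 37 °C, then stimulated overnight with IL-23 at 0.1 ng/mL final. Supernatant mixed with QUANTI-Blue for 2 h at 37 °C and secreted SEAP read out.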

[3] = HEK-Blue IL-23, HEK-Blue IL-23 cells

IC50 [1] [nM] | Compound | IC50 [2, 3] [nM] | IC50 ([2]; HEK-Blue IL-23 cells) [nM]
10 to 100 | CNc1cc(Nc2cccn(C3CCOCC3)c2=O)nn2c(C(=O)N[C@@H]3C[C@H]4CCO[C@H]43)cnc12 [Compound 66] | < 10 | –
10 to 100 | [2H]C([2H])([2H])Nc1cc(Nc2cccn(C3CC4(CCOC4)C3)c2=O)nc2c(C(=O)N[C@@H]3C[C@H]4CCO[C@H]43)cnn12 (single isomer, unassigned) [Compound 97b] | – | 10 to 100
10 to 100 | CNc1cc(Nc2cccn(C3C[C@H]4CC[C@@H](C3)O4)c2=O)nn2c(C(=O)N[C@@H]3C[C@@H]3F)cnc12 (single isomer, unassigned) [Compound 79b] | – | < 10
10 to 100 | [2H]C([2H])([2H])Nc1cc(Nc2cccn(C3CC4(CCCO4)C3)c2=O)nn2c(C(=O)N[C@@H]3C[C@@H]3F)cnc12 (single isomer, unassigned) [Compound 104b] | – | 10 to 100
10 to 100 | [2H]C([2H])([2H])Nc1cc(Nc2cccn(C3CC4(CCCO4)C3)c2=O)nn2c(C(=O)N[C@@H]3C[C@H]4CCO[C@H]43)cnc12 (single isomer, unassigned) [Compound 98a] | 10 to 100 | –
10 to 100 | [2H]C([2H])([2H])Nc1cc(Nc2cccn(C3CC4OCCC43)c2=O)nn2c(C(=O)N[C@@H]3C[C@H]4CCO[C@H]43)cnc12 (single isomer, unassigned) [Compound 94b] | – | 10 to 100
10 to 100 | CNc1cc(Nc2cccn(-c3ccn(C)n3)c2=O)nn2c(C(=O)NC(C)c3ncco3)cnc12 (single isomer, unassigned) [Compound 49a] | – | < 10
10 to 100 | [2H]C([2H])([2H])O[C@H]1C[C@@H](n2cccc(Nc3cc(NC)c4ncc(C(=O)N[C@@H]5C[C@H]6CCO[C@H]65)n4n3)c2=O)C1 [Compound 86] | 10 to 100 | –
< 10 | CNc1cc(Nc2cccn(-c3ccccn3)c2=O)nc2c(C(=O)NC3CCn4ccnc43)cnn12 (stereo not drawn) [Compound 18, N-(6,7-dihydro-5H-pyrrolo[1,2-a]imidazol-7-yl)-7-(methylamino)-5-((2-oxo-2H-[1,2′-bipyridin]-3-yl)amino)pyrazolo[1,5-a]pyrimidine-3-carboxamide] | < 10 | –
10 to 100 | CNc1cc(Nc2cccn(-c3ccccn3)c2=O)nc2c(C(=O)NC(C)c3ncco3)cnn12 (single isomer, unassigned) [Compound 36b] | – | 10 to 100
10 to 100 | [2H]C([2H])([2H])Nc1cc(Nc2cccn(C3CC4(CCCO4)C3)c2=O)nn2c(C(=O)N[C@@H]3C[C@H]4CCO[C@H]43)cnc12 (single isomer, unassigned) [Compound 98b] | – | 10 to 100
10 to 100 | [2H]C([2H])([2H])O[C@H]1C[C@H](n2cccc(Nc3cc(NC)c4ncc(C(=O)N[C@@H]5C[C@H]6CCO[C@H]65)n4n3)c2=O)C1 [Compound 83] | 10 to 100 | –
10 to 100 | [2H]C([2H])([2H])Nc1cc(Nc2cccn(C3CCCC4(COC4)C3)c2=O)nn2c(C(=O)N[C@@H]3C[C@H]4CCO[C@H]43)cnc12 (single isomer, unassigned) [Compound 68b] | – | < 10
10 to 100 | [2H]C([2H])([2H])Nc1cc(Nc2cccn([C@H]3CC[C@@H](OC([2H])([2H])[2H])CC3)c2=O)nn2c(C(=O)N[C@@H]3C[C@H]4CCO[C@H]43)cnc12 [Compound 64] | 10 to 100 | –
< 10 | CNc1cc(Nc2cccc3c2OCCC3)nc2c(C(=O)N[C@@H]3C[C@H]4CCO[C@H]43)cnn12 (racemic) [Compound 27] | < 10 | –
10 to 100 | CNc1cc(Nc2cccn([C@H]3CC[C@@H](OC)CC3)c2=O)nn2c(C(=O)N[C@@H]3C[C@@H]3F)cnc12 [Compound 70] | 10 to 100 | –
10 to 100 | CNc1cc(Nc2cccn(-c3ccccn3)c2=O)nn2c(C(=O)NC(C)c3ncco3)cnc12 (racemic) [Compound 34] | 10 to 100 | –
> 1000 | CNc1cc(Nc2cccn([C@@H]3C[C@H]4CCO[C@H]43)c2=O)nn2c(C(=O)NC3CCC4CCOC43)cnc12 (single isomer, unassigned) [Compound 95b] | – | ≥ 1000
